Our source for the Kd values is US20240116892A1, “HETEROCYCLIC AMIDE AND UREA COMPOUNDS AS JAK2 INHIBITORS” (Ajax Therapeutics, Inc., priority 2022, published 2024).

Molecules are shown by their SMILES.

The assay has as its target JAK2 (JH1 domain-catalytic, Y1007F, Y1008F) kinase (Homo sapiens (Human), UniProt O60674, Y1007F/Y1008F). Briefly: JAK2 JH1 Domain Binding Assay. The note with it: qPCR readout. The gist of the method: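 Competitive binding format: test compound, DNA-tagged JAK2 JH1 (Y1007F/Y1008F; HEK293-expressed NFkB fusion) and ligand-coated magnetic beads incubated 1 h at room temperature. Kinase retained on beads released with 0.5 μmol/L non-biotinylated ligand, then measured by qPCR.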
(In qPCR the cycle at which signal appears reflects the starting amount.)

Chain of JAK2 (JH1 domain-catalytic, Y1007F, Y1008F) kinase (O60674 849-1124 Y1007F/Y1008F): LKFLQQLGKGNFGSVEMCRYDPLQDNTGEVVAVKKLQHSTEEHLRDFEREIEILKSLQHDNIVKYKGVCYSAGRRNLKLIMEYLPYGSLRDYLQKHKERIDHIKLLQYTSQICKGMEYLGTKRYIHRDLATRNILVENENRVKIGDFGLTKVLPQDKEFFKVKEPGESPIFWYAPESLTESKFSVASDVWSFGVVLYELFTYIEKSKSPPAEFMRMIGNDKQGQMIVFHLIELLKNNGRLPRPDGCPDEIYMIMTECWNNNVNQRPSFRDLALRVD

A word on the Kd: it is a measure of binding affinity in units of concentration. `COCc1cc2nc(N3CC[C@@H]4[C@@H](C3)OCCN4C(=O)Nc3cc(C(F)(F)F)cn(C)c3=O)cnc2[nH]1` [Example I-164-b, (4aR,8aR)-6-(6-(methoxymethyl)-5H-pyrrolo[2,3-b]pyrazin-2-yl)-N-(1-methyl-2-oxo-5-(trifluoromethyl)-1,2-dihydropyridin-3-yl)octahydro-1H-pyrido[3,4-b][1,4]oxazine-1-carboxamide] came in with a Kd of 10 to 50 nM.
The result for `CN(C(=O)Nc1cc(C(F)(F)F)ccn1)[C@H]1CCN(c2cnc3[nH]ncc3c2)CC1(F)F` (mixture of isomers) [Example I-146-b, (R)-1-(3,3-difluoro-1-(1H-pyrazolo[3,4-b]pyridin-5-yl)piperidin-4-yl)-1-methyl-3-(4-(trifluoromethyl)pyridin-2-yl)urea and (S)-1-(3,3-difluoro-1-(1H-pyrazolo[3,4-b]pyridin-5-yl)piperidin-4-yl)-1-methyl-3-(4-(trifluoromethyl)pyridin-2-yl)urea] reads < 10 nM.
The result for `Cn1cc(C(F)(F)F)cc(NC(=O)N2CCO[C@@H]3CN(c4cnc5[nH]ccc5n4)CC[C@H]32)c1=O` [Example I-128-b, (4aR,8aR)-N-(1-methyl-2-oxo-5-(trifluoromethyl)-1,2-dihydropyridin-3-yl)-6-(5H-pyrrolo[2,3-b]pyrazin-2-yl)octahydro-1H-pyrido[3,4-b][1,4]oxazine-1-carboxamide] reads < 10 nM; that for `CN(C(=O)Nc1cc(C(F)(F)F)cn(C)c1=O)[C@@H]1CCN(c2cnccn2)CC1(F)F` (single isomer, unassigned) [Example I-22-a], 10 to 50 nM.
The result for `CN(C(=O)Nc1cc(C(F)(F)F)cn(C)c1=O)C1CCN(c2cnc3[nH]ccc3n2)CC1` [Example I-15, 1-(1-(5H-pyrrolo[2,3-b]pyrazin-2-yl)piperidin-4-yl)-1-methyl-3-(1-methyl-2-oxo-5-(trifluoromethyl)-1,2-dihydropyridin-3-yl)urea] reads < 10 nM; that for `Cc1cc(C(F)(F)F)cc(NC(=O)N(C)[C@H]2CCN(c3cnc4[nH]ncc4c3)C[C@@H]2F)n1` [Example I-178, 1-((35,4S)-3-fluoro-1-(1H-pyrazolo[3,4-b]pyridin-5-yl)piperidin-4-yl)-1-methyl-3-(6-methyl-4-(trifluoromethyl)pyridin-2-yl)urea], < 10 nM.
For the compound `CC(=O)Nc1cnc(N2CCC(N(C)C(=O)Nc3cc(C(F)(F)F)cc(C)n3)CC2)cn1` [Example I-23, N-(5-(4-(1-methyl-3-(6-methyl-4-(trifluoromethyl)pyridin-2-yl)ureido)piperidin-1-yl)pyrazin-2-yl)acetamide], the Kd is < 10 nM.
As for `CC(=O)Nc1cnc(C2=CC[C@H](N(C)C(=O)Nc3cc(C(F)(F)F)cn(C)c3=O)CC2)cn1` [Example I-140-b, (R)—N-(5-(4-(1-methyl-3-(1-methyl-2-oxo-5-(trifluoromethyl)-1,2-dihydropyridin-3-yl)ureido)cyclohex-1-en-1-yl)pyrazin-2-yl)acetamide], the Kd was < 10 nM.
The result for `CN(C(=O)Nc1cc(C(F)(F)F)cn(C)c1=O)[C@@H]1CCN(c2cnc3[nH]n(C)c(=O)c3c2)C[C@@H]1F` [Example I-89-a, 1-((3S,4R)-3-fluoro-1-(2-methyl-3-oxo-2,3-dihydro-1H-pyrazolo[3,4-b]pyridin-5-yl)piperidin-4-yl)-1-methyl-3-(1-methyl-2-oxo-5-(trifluoromethyl)-1,2-dihydropyridin-3-yl)urea] reads 10 to 50 nM; that for `C[C@H]1CN(C(=O)Nc2cc(C(F)(F)F)cn(C)c2=O)C2(CCN(c3cnc4[nH]ccc4n3)CC2)C1` (single isomer, unassigned) [Example I-53-b], 50 to 1000 nM.
The figure for `CN(C(=O)Nc1cc(C(F)(F)F)cn(C)c1=O)C1CCN(c2cnc(NC(=O)C3CC3)cn2)CC1` [Example I-18, N-(5-(4-(1-methyl-3-(1-methyl-2-oxo-5-(trifluoromethyl)-1,2-dihydropyridin-3-yl)ureido)piperidin-1-yl)pyrazin-2-yl)cyclopropanecarboxamide] is < 10 nM; for `CN(C(=O)Nc1cc(C(F)(F)F)cn(C)c1=O)[C@@H]1CCN(c2cnc3[nH]c(=O)[nH]c3c2)C[C@@H]1F` [Example I-100-b, 1-((3S,4R)-3-fluoro-1-(2-oxo-2,3-dihydro-1H-imidazo[4,5-b]pyridin-6-yl)piperidin-4-yl)-1-methyl-3-(1-methyl-2-oxo-5-(trifluoromethyl)-1,2-dihydropyridin-3-yl)urea] it is < 10 nM.
The result for `CN1CCC(c2n[nH]c3ncc(N4CC[C@@H](N(C)C(=O)Nc5cc(C(F)(F)F)cn(C)c5=O)C(F)(F)C4)cc23)CC1` (single isomer, unassigned) [Example I-122-b] reads < 10 nM.
`CN(C(=O)Nc1cc(C(F)(F)F)cn(C)c1=O)[C@H]1CCN(c2cnc3[nH]ncc3c2)CC1(C)C` (single isomer, unassigned) [Example I-45-a]: the Kd was < 10 nM.
The figure for `CN(C(=O)Nc1cc(C(F)(F)F)cn(C)c1=O)C1(C)CCN(c2cnc3[nH]ccc3n2)CC1` [Example I-51, 1-methyl-1-(4-methyl-1-(5H-pyrrolo[2,3-b]pyrazin-2-yl)piperidin-4-yl)-3-(1-methyl-2-oxo-5-(trifluoromethyl)-1,2-dihydropyridin-3-yl)urea] is 10 to 50 nM; for `CN(C(=O)Nc1cc(C(F)(F)F)cn(C)c1=O)[C@@H]1CCN(c2cnc3[nH]nc(OC[C@H]4COCCO4)c3c2)C[C@@H]1F` [Example I-102-a, 1-((3S,4R)-1-(3-(((R)-1,4-dioxan-2-yl)methoxy)-1H-pyrazolo[3,4-b]pyridin-5-yl)-3-fluoropiperidin-4-yl)-1-methyl-3-(1-methyl-2-oxo-5-(trifluoromethyl)-1,2-dihydropyridin-3-yl)urea] it is < 10 nM.
In turn, `Cn1cc(C(F)(F)F)cc(NC(=O)N2CCCC23CCN(c2cnc4[nH]ccc4n2)CC3)c1=O` [Example I-47, N-(1-methyl-2-oxo-5-(trifluoromethyl)-1,2-dihydropyridin-3-yl)-8-(5H-pyrrolo[2,3-b]pyrazin-2-yl)-1,8-diazaspiro[4.5]decane-1-carboxamide] yielded a Kd of 10 to 50 nM.
Consider `CN(C(=O)Nc1cc(C(F)(F)F)cn(C)c1=O)C1CCN(c2cnc3[nH]cc(N4CCOCC4)c3n2)CC1` [Example I-124, 1-methyl-3-(1-methyl-2-oxo-5-(trifluoromethyl)-1,2-dihydropyridin-3-yl)-1-(1-(7-morpholino-5H-pyrrolo[2,3-b]pyrazin-2-yl)piperidin-4-yl)urea], for which the Kd is < 10 nM.
On to `CC(=O)Nc1cnc(N2CCC(CC(=O)Nc3cc(C)cc(C(F)(F)F)c3)CC2)cn1` [Example I-2, 2-(1-(5-acetamidopyrazin-2-yl)piperidin-4-yl)-N-(3-methyl-5-(trifluoromethyl)phenyl)acetamide], for which the Kd was 50 to 1000 nM.
Regarding `CN(C(=O)Nc1cc(C(F)(F)F)cn(C)c1=O)C1CCN(c2cnc3[nH]cc(C#N)c3n2)CC1` [Example I-59, 1-(1-(7-cyano-5H-pyrrolo[2,3-b]pyrazin-2-yl)piperidin-4-yl)-1-methyl-3-(1-methyl-2-oxo-5-(trifluoromethyl)-1,2-dihydropyridin-3-yl)urea], the Kd is < 10 nM.
The figure for `C[C@H]1C[C@@H](N(C)C(=O)Nc2cc(C(C)(C)C)n([C@H]3C[C@H](O)C3)n2)CCN1c1cnc2[nH]ncc2c1` [Example I-135-b, 3-(5-(tert-butyl)-1-((1r,3S)-3-hydroxycyclobutyl)-1H-pyrazol-3-yl)-1-methyl-1-((2S,4S)-2-methyl-1-(1H-pyrazolo[3,4-b]pyridin-5-yl)piperidin-4-yl)urea] is 50 to 1000 nM; for `CN(C(=O)Nc1cc(C(F)(F)F)cn(C)c1=O)C1CCN(c2cnc3[nH]ncc3n2)CC1` [Example I-68, 1-(1-(1H-pyrazolo[3,4-b]pyrazin-5-yl)piperidin-4-yl)-1-methyl-3-(1-methyl-2-oxo-5-(trifluoromethyl)-1,2-dihydropyridin-3-yl)urea] it is < 10 nM.
Take `CC(=O)Nc1cnc(N2CCC(CC(=O)Nc3cc(CN4CCN(C)CC4)cc(C(F)(F)F)c3)CC2)cn1` [Example I-7, 2-(1-(5-acetamidopyrazin-2-yl)piperidin-4-yl)-N-(3-((4-methylpiperazin-1-yl)methyl)-5-(trifluoromethyl)phenyl)acetamide]: the Kd was 1000 to 5000 nM.
The result for `C[C@@H]1C[C@H](N(C)C(=O)Nc2cc(C(F)(F)F)cn(C)c2=O)CCN1c1cnc2[nH]ccc2n1` [Example I-126-b, 1-methyl-1-((2R,4R)-2-methyl-1-(5H-pyrrolo[2,3-b]pyrazin-2-yl)piperidin-4-yl)-3-(1-methyl-2-oxo-5-(trifluoromethyl)-1,2-dihydropyridin-3-yl)urea] reads < 10 nM.
In the case of `C[C@H]1C[C@@H](N(C)C(=O)Nc2cc(C(F)(F)F)cn(C)c2=O)CCN1c1cnc2[nH]ccc2n1` [Example I-126-a, 1-methyl-1-((2S,4S)-2-methyl-1-(5H-pyrrolo[2,3-b]pyrazin-2-yl)piperidin-4-yl)-3-(1-methyl-2-oxo-5-(trifluoromethyl)-1,2-dihydropyridin-3-yl)urea], the Kd is < 10 nM.
The figure for `CN(C(=O)Nc1cc(C(F)(F)F)cn(C)c1=O)[C@@H]1C[C@@H]2C[C@H]1CN2c1cnc2[nH]ccc2n1` [Example I-43-a, 1-((1S,4S,5R)-2-(5H-pyrrolo[2,3-b]pyrazin-2-yl)-2-azabicyclo[2.2.1]heptan-5-yl)-1-methyl-3-(1-methyl-2-oxo-5-(trifluoromethyl)-1,2-dihydropyridin-3-yl)urea] is 10 to 50 nM; for `CN(C(=O)Nc1cc(C(F)(F)F)cn(C)c1=O)[C@H]1CCN(c2cnc3[nH]ccc3n2)C[C@H]1F` [Example I-64-b, 1-((3R,4S)-3-fluoro-1-(5HI-pyrrolo[2,3-b]pyrazin-2-yl)piperidin-4-yl)-1-methyl-3-(1-methyl-2-oxo-5-(trifluoromethyl)-1,2-dihydropyridin-3-yl)urea] it is < 10 nM.
